Assay results reported in US6054435A, “6-O-substituted macrolides having antibacterial activity” (priority 1999, dated 2000).
In brackets after ≈: the same amount, converted by molar mass.

How the values were obtained:
Assay in all cases: in vitro antibacterial activity (MIC), agar dilution
Assay type in all cases: cell-based
[1] = system: Streptococcus pyogenes 930; settings: organism code MM; BHI agar, 35-37° C., 20 to 24 hours; unit assumed
How it was run: (§1)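 Steps: dilute compound serially into BHI agar (twelve plates); spot inocula diluted 1:100, or 1:10 for slow-growing Streptococcus; incubate; inspect visually. MIC recorded as lowest level with no growth, slight haze or sparse isolated colonies.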

[2] = system: Staphylococcus aureus NCTC10649M; settings: organism code EE; BHI agar, 35-37° C., 20 to 24 hours; unit assumed
How it was run: as §1

Candida albicans CCH 442 = settings: organism code TT; BHI agar, 35-37° C., 20 to 24 hours; unit assumed
How it was run: as §1

[3] = system: Streptococcus bovis A-5169; settings: organism code JJ; BHI agar, 35-37° C., 20 to 24 hours; unit assumed
How it was run: as §1

[4] = system: Mycobacterium smegmatis ATCC 114; settings: organism code UU; BHI agar, 35-37° C., 20 to 24 hours; unit assumed
How it was run: as §1

[5] = system: Staphylococcus aureus CMX 553; settings: organism code FF; BHI agar, 35-37° C., 20 to 24 hours; unit assumed
How it was run: as §1

[6] = system: Streptococcus Pneumonia 5979; settings: organism code ZZ; BHI agar, 35-37° C., 20 to 24 hours; unit assumed
How it was run: as §1

[7] = system: Staphylococcus epidermidis 3519; settings: organism code HH; BHI agar, 35-37° C., 20 to 24 hours; unit assumed
How it was run: as §1

[8] = system: Staphylococcus aureus A-5278; settings: organism code CC; BHI agar, 35-37° C., 20 to 24 hours; unit assumed
How it was run: as §1

[9] = system: Haemophilis Influenzae DILL AMP R; settings: organism code WW; BHI agar, 35-37° C., 20 to 24 hours; unit assumed
How it was run: as §1

Escherichia coli SS = settings: organism code RR; BHI agar, 35-37° C., 20 to 24 hours; unit assumed
How it was run: as §1

[10] = system: Streptococcus pyogenes PIU 2548; settings: organism code NN; BHI agar, 35-37° C., 20 to 24 hours; unit assumed
How it was run: as §1

[11] = system: Streptococcus pyogenes EES61; settings: organism code LL; BHI agar, 35-37° C., 20 to 24 hours; unit assumed
How it was run: as §1

[12] = system: Streptococcus Pneumonia GYR 1171; settings: organism code YY; BHI agar, 35-37° C., 20 to 24 hours; unit assumed
How it was run: as §1

[13] = system: Staphylococcus aureus A5177; settings: organism code BB; BHI agar, 35-37° C., 20 to 24 hours; unit assumed
How it was run: as §1

[14] = system: Streptococcus Pneumonia 5649; settings: organism code ZZA; BHI agar, 35-37° C., 20 to 24 hours; unit assumed
How it was run: as §1

[15] = system: Streptococcus agalactiae CMX 508; settings: organism code KK; BHI agar, 35-37° C., 20 to 24 hours; unit assumed
How it was run: as §1

[16] = system: Streptococcus Pneumonia ATCC6303; settings: organism code XX; BHI agar, 35-37° C., 20 to 24 hours; unit assumed
How it was run: as §1

[17] = system: Enterococcus faecium ATCC 8043; settings: organism code II; BHI agar, 35-37° C., 20 to 24 hours; unit assumed
How it was run: as §1

[18] = system: Staphylococcus aureus ATCC 6538P; settings: organism code AA; BHI agar, 35-37° C., 20 to 24 hours; unit assumed
How it was run: as §1

[19] = system: Staphylococcus aureus CMX 642A; settings: organism code DD; BHI agar, 35-37° C., 20 to 24 hours; unit assumed
How it was run: as §1

Escherichia coli JUHL = settings: organism code QQ; BHI agar, 35-37° C., 20 to 24 hours; unit assumed
How it was run: as §1

[20] = system: Micrococcus luteus ATCC 4698; settings: organism code PP; BHI agar, 35-37° C., 20 to 24 hours; unit assumed
How it was run: (§2)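 Antibacterial MIC determined by agar dilution in BHI agar with twelve successive concentrations; controls comprised compound-free plates and a same-class reference antibiotic. MIC: lowest concentration giving no growth, slight haze or sparsely isolated colonies.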

[21] = system: Nocardia Asteroides ATCC9970; settings: organism code VV; BHI agar, 35-37° C., 20 to 24 hours; unit assumed
How it was run: as §1

[22] = system: Staphylococcus aureus 1775; settings: organism code GG; BHI agar, 35-37° C., 20 to 24 hours; unit assumed
How it was run: as §1

Escherichia coli DC-2 = settings: organism code SS; BHI agar, 35-37° C., 20 to 24 hours; unit assumed
How it was run: as §1

[23] = system: Micrococcus luteus ATCC 9341; settings: organism code OO; BHI agar, 35-37° C., 20 to 24 hours; unit assumed
How it was run: as §2

Row | Compound | MIC [1] | MIC [2] | MIC (Candida albicans CCH 442) | MIC [3] | MIC [4] | MIC [5] | MIC [6] | MIC [7] | MIC [8] | MIC [9] | MIC (Escherichia coli SS) | MIC [10] | MIC [11] | MIC [12] | MIC [13] | MIC [14] | MIC [15] | MIC [16] | MIC [17] | MIC [18] | further results
1 | CC[C@H]1OC(=O)[C@H](C)C(=O)[C@H](C)[C@@H](O[C@@H]2O[C@H](C)C[C@H](N(C)C)[C@H]2O)[C@](C)(OC/C=C/c2ccc(-c3ccco3)s2)C[C@@H](C)C(=O)[C@H](C)[C@H]2NC(=O)O[C@@]21C [Example 77] | 12.5 µg/mL (≈ 15.9 µM) | 0.1 µg/mL (≈ 0.127 µM) | > 100 µg/mL | 0.01 µg/mL (≈ 0.0127 µM) | 0.78 µg/mL (≈ 0.991 µM) | 0.1 µg/mL (≈ 0.127 µM) | 16 µg/mL (≈ 20.3 µM) | 0.1 µg/mL (≈ 0.127 µM) | 100 µg/mL (≈ 127 µM) | 8 µg/mL (≈ 10.2 µM) | 0.39 µg/mL (≈ 0.496 µM) | 0.2 µg/mL (≈ 0.254 µM) | 0.05 µg/mL (≈ 0.0635 µM) | ≤ 0.004 µg/mL | 0.1 µg/mL (≈ 0.127 µM) | 0.25 µg/mL (≈ 0.318 µM) | 0.02 µg/mL (≈ 0.0254 µM) | ≤ 0.004 µg/mL | 0.05 µg/mL (≈ 0.0635 µM) | 0.1 µg/mL (≈ 0.127 µM) | MIC [19]: 0.1 µg/mL (≈ 0.127 µM); MIC (Escherichia coli JUHL): 50 µg/mL (≈ 63.5 µM); MIC [20]: 0.2 µg/mL (≈ 0.254 µM); MIC [21]: 0.2 µg/mL (≈ 0.254 µM); MIC [22]: 100 µg/mL (≈ 127 µM); MIC (Escherichia coli DC-2): 50 µg/mL (≈ 63.5 µM); MIC [23]: 0.02 µg/mL (≈ 0.0254 µM)
2 | CC[C@H]1OC(=O)[C@H](C)C(=O)[C@H](C)[C@@H](O[C@@H]2O[C@H](C)C[C@H](N(C)C)[C@H]2O)[C@](C)(OCC#Cc2ccc(-c3cccc(C)c3)s2)C[C@@H](C)C(=O)[C@H](C)[C@H]2NC(=O)O[C@@]21C [Example 18] | 1.56 µg/mL (≈ 1.93 µM) | 0.2 µg/mL (≈ 0.247 µM) | > 100 µg/mL | 0.01 µg/mL (≈ 0.0124 µM) | 0.1 µg/mL (≈ 0.124 µM) | 0.1 µg/mL (≈ 0.124 µM) | 2 µg/mL (≈ 2.47 µM) | 0.2 µg/mL (≈ 0.247 µM) | 25 µg/mL (≈ 30.9 µM) | 2 µg/mL (≈ 2.47 µM) | 0.78 µg/mL (≈ 0.964 µM) | 0.2 µg/mL (≈ 0.247 µM) | 0.02 µg/mL (≈ 0.0247 µM) | 0.03 µg/mL (≈ 0.0371 µM) | 0.1 µg/mL (≈ 0.124 µM) | 0.5 µg/mL (≈ 0.618 µM) | 0.02 µg/mL (≈ 0.0247 µM) | 0.06 µg/mL (≈ 0.0742 µM) | 0.1 µg/mL (≈ 0.124 µM) | 0.1 µg/mL (≈ 0.124 µM) | MIC [19]: 0.1 µg/mL (≈ 0.124 µM); MIC (Escherichia coli JUHL): > 100 µg/mL; MIC [20]: 0.2 µg/mL (≈ 0.247 µM); MIC [21]: 0.1 µg/mL (≈ 0.124 µM); MIC [22]: 12.5 µg/mL (≈ 15.5 µM); MIC (Escherichia coli DC-2): > 100 µg/mL; MIC [23]: 0.02 µg/mL (≈ 0.0247 µM)
3 | CC[C@H]1OC(=O)[C@H](C)C(=O)[C@H](C)[C@@H](O[C@@H]2O[C@H](C)C[C@H](N(C)C)[C@H]2O)[C@](C)(OC/C=C/c2cncc(-c3ccco3)c2)C[C@@H](C)C(=O)[C@H](C)[C@H]2NC(=O)O[C@@]21C [Example 50] | 12.5 µg/mL (≈ 16 µM) | 0.1 µg/mL (≈ 0.128 µM) | > 100 µg/mL | 0.01 µg/mL (≈ 0.0128 µM) | 0.39 µg/mL (≈ 0.499 µM) | 0.02 µg/mL (≈ 0.0256 µM) | 128 µg/mL (≈ 164 µM) | 0.05 µg/mL (≈ 0.0639 µM) | > 100 µg/mL | 2 µg/mL (≈ 2.56 µM) | 0.39 µg/mL (≈ 0.499 µM) | 0.1 µg/mL (≈ 0.128 µM) | 0.02 µg/mL (≈ 0.0256 µM) | ≤ 0.004 µg/mL | 0.02 µg/mL (≈ 0.0256 µM) | 0.12 µg/mL (≈ 0.153 µM) | 0.01 µg/mL (≈ 0.0128 µM) | ≤ 0.004 µg/mL | 0.05 µg/mL (≈ 0.0639 µM) | 0.05 µg/mL (≈ 0.0639 µM) | MIC [19]: 0.05 µg/mL (≈ 0.0639 µM); MIC (Escherichia coli JUHL): 25 µg/mL (≈ 32 µM); MIC [20]: 0.1 µg/mL (≈ 0.128 µM); MIC [21]: 0.05 µg/mL (≈ 0.0639 µM); MIC [22]: > 100 µg/mL; MIC (Escherichia coli DC-2): 50 µg/mL (≈ 63.9 µM); MIC [23]: 0.01 µg/mL (≈ 0.0128 µM)
